Data taken from publication PMC11156899, “High-throughput screening unveils nitazoxanide as a potent PRRSV inhibitor by targeting NMRAL1” (Nature Communications, 2024).
“And” between values parts separate entries of the source, which are not always exact repeats. Equal entries are not always repeated. Where two headings read alike, the source gives them in different places.

Key:
[1] = test system: PRRSV (GSWW-18 strain); assay: Anti-PRRSV dose-response (EC50, IFA) in PAM cells; assay type: cell-based, Porcine Reproductive and Respiratory Syndrome Virus; conditions: Porcine reproductive and respiratory syndrome virus
[2] = Cytotoxicity assay (CC50) in PAM cells; conditions: pig, porcine alveolar macrophages (PAM cells)
Method: (§1) A concentration-gradient screening strategy was employed for 141 compounds using indirect immunofluorescence assay (IFA). […] Data are mean ± SEM.
(§2) Cells were seeded in 96-well plates and grown in DMEM supplemented with 10% FBS. Upon reaching confluence, compounds were diluted to varying concentrations in 2% FBS-containing medium. Control wells contained DMEM with 0.5% DMSO. Treated cells were incubated at 37 °C in a 5% CO2 humidified environment for 48 or 72 h, followed by cytotoxicity assessment as outlined in our previous work[21]. […]

[3] = test system: PRRSV GSWW-18 strain in Marc-145 cells; conditions: reason for exclusion before third round
Method: Subsequently, a second-round screening of the selected 141 compounds was conducted on Marc-145 cells using immunofluorescence assay (IFA) at four different dosage levels (Fig. 2a; Supplementary Fig. 2).
as §1
(1 picture or pasted object on this page, not shown here)

[4] = test system: Porcine alveolar macrophages (PAM); assay: Cytotoxicity assay (CC50) in PAM cells
Method: as §1, §2

[5] = test system: PRRSV GSWW-18 strain; assay: In vivo antiviral effect in swine infected with GSWW-18 strain; design: species or system pig
[6] = Pharmacokinetics and tissue distribution of TIZ in swine after oral NTZ; assay type: in vivo, pig
Method: Fig. 4 NTZ inhibition of PRRSV shedding and transmission. a Viral load in blood, and shedding in oronasal and anal swabs. Viral load or shedding in blood and oronasal swabs were quantified from 2 to 4 dpi, and in anal swabs from 2 to 5 dpi. Viral copy numbers for each pig during this period are presented. b NTZ suppression of PRRSV proliferation in blood. 48 h post infection (infected with 1 × 10^5.5 TCID50 of GSWW-18 strain), pigs were orally administered NTZ at 10 mg/kg or 5 mg/kg at 0 h and 12 h, followed by blood collection via anterior vena cava or ear marginal vein. […] Parameters were calculated using a non-compartmental analysis (NCA). Eighteen pigs were evenly divided into three dosage groups (n = 6), each housed separately, fasted for 12 h before the experiment, and monitored by professional veterinarians for welfare and enclosure cleaning to prevent coprophagia. g Tissue distribution of NTZ’s main metabolite TIZ. Tissues were collected as per Method Pharmacokinetics and Tissue Distribution of NTZ, quantifying TIZ content at various times (n = 2). […] Symbols represent three or six independent biological replicates (a, b, f) Scatter plots (a, f) show mean ± SD values of samples, with P-values as indicated, calculated via two-way ANOVA with Dunnett’s multiple-comparison test (a), P-values < 0.0332 were considered significant. […]

[7] = molecular target: NMRAL1 (Chlorocebus sabaeus, UniProt A0A0D9R9W0); assay: Surface plasmon resonance, immobilized NMRAL1; assay type: binding; conditions: SPR
Method: For SPR, the Biacore T200 system (Cytiva) was used to assess binding affinity and kinetics. The Series S Sensor Chip CM5 (BR100530, Cytiva) immobilized 13,000 resonance units (RU) of NMRAL1 (50 μg/ml, pH 4.0, 10 μl/min, 25°C). TIZ (10 to 0.3125 μM) dissolved in a 5% DMSO running buffer (1.05 × HBS-EP+, Cytiva) was applied, with a solvent correction fluid gradient of 4.5–5.8% DMSO. Contact time was set to 120 s for binding and 300 s for dissociation. Post-experiment, data were analyzed using Biacore T200 Evaluation Software 3.0 with Affinity Fit 1:1 Binding model.

[8] = test system: NSP12; assay: Surface plasmon resonance, NSP12 purified in vitro; assay type: binding, PRRSV GSWW-18 strain
Source text: Supplementary Fig. 10: The Affinity of Nsp1α and Nsp12 with TIZ is Lower Than That of NMRAL1.
(a) The KD value of NMRAL1 obtained through the Affinity fit model.
(b) The KD value of Nsp1α determined using the Kinetics fit model.
(c) The KD value of Nsp1α obtained through the Affinity fit model.
'FT' is the flow-through after passing through the Ni column. 'Ni-200' and 'Ni-500' represent different purification conditions with varying concentrations. 'L2' is the total cell lysate after changing the expression conditions. 'S2' is the supernatant after cell lysis with changed expression conditions. The portions highlighted in red boxes indicate the target protein. […]
constant (KD) between Nsp1α and TIZ is lower than that of NMRAL1. We observe that […]
attempting different systems (Fig. R5 e-h). Although SPR confirms the interaction […]
possibly be attributed to the abnormal protein conformation of NSP12 purified by IBs.
The existing data also indicate that the early addition of NTZ produces a more pronounced antiviral effect (Extended Data Fig. 9), and the overexpression of NMRAL1 can almost negate the antiviral action of NTZ. This leads us to speculate that NMRAL1 may be one of the primary targets of NTZ's mechanism of action, while Nsp1α and NSP12 may serve as secondary targets.
Fig.R5 Validation of the binding between Nsp1α and Nsp12 with TIZ through SPR,

[9] = PAM cells, mean ± SEM, n = 2, unit only on axis title, read-out: EC50
[10] = third round of screening, PAM cells

Chain of NMRAL1 (A0A0D9R9W0 entry or part of it): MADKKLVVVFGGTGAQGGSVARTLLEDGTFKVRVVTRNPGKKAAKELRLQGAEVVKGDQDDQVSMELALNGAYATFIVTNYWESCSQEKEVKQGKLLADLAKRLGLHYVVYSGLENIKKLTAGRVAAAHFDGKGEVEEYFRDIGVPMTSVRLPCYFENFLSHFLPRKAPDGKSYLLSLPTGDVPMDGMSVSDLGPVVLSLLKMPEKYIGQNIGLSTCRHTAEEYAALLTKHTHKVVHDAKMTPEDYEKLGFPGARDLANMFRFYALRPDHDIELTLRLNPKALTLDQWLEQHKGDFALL

Q: Which EC50 [1, 9] does the source give for `CN(Cc1cnc2nc(N)nc(N)c2n1)c1ccc(C(=O)N[C@@H](CCC(=O)O)C(=O)O)cc1` [Methotrexate] here?
A: The EC50 was 307 ± 316 nM.

Q: And the CC50 [2]?
A: The CC50 was 6830 ± 2250 nM.

Q: For `C[C@H]1O[C@@H](O[C@H]2CC[C@@]3(C)[C@H](CC[C@@H]4[C@@H]3C[C@@H](O)[C@]3(C)[C@@H](C5=CC(=O)OC5)CC[C@]43O)C2)C[C@H](O)[C@@H]1O[C@H]1C[C@H](O)[C@H](O[C@H]2C[C@H](O)[C@H](O[C@@H]3O[C@H](CO)[C@@H](O)[C@H](O)[C@H]3O)[C@@H](C)O2)[C@@H](C)O1` [Deslanoside], which “cytotoxicity (in words)” value [3] is on record?
A: The value was “high cytotoxicity”.

Q: For `CCN(CC)CCCC(C)Nc1ccnc2cc(Cl)ccc12` (stereo not shown) [Chloroquine], which EC50 [1, 9] is on record?
A: The EC50 was 1520 ± 475 nM.

Q: What about the “cytotoxicity (in words)” value [4, 10] of the same compound?
A: The value was “low cytotoxicity”.

Q: Which results are given for `NC(=O)c1ncn([C@@H]2O[C@H](CO)[C@@H](O)[C@H]2O)n1` [RBV, Ribavirin]?
A: viral load and shedding, setting of efficacy ([5]; blood, oronasal and anal swabs): effective only in the prophylactic setting; efficacy against PRRSV in swine ([5]; positive control group): appeared to lack efficacy

Q: For `CC(=O)c1ccc2c(c1)N(CCCN1CCN(CCO)CC1)c1ccccc1S2` [Acetophenazine], which EC50 [1] is on record?
A: Its EC50 is 718 ± 224 nM.

Q: What about the “cytotoxicity (in words)” value [4, 10] of the same compound?
A: The value was “low cytotoxicity”.

Q: What does the source list for `CCN(CCO)CCCC(C)Nc1ccnc2cc(Cl)ccc12` (stereo not shown) [Hydroxychloroquine]?
A: EC50 [1, 9]: 1090 ± 187 nM; cytotoxicity (in words) [4]: low cytotoxicity

Q: What does the source list for `CCC(CC)COC(=O)[C@H](C)N[P@](=O)(OC[C@H]1O[C@@](C#N)(c2ccc3c(N)ncnn23)[C@H](O)[C@@H]1O)Oc1ccccc1` [Remdesivir]?
A: EC50 [1, 9]: 4990 ± 2370 nM; cytotoxicity (in words) [4]: low cytotoxicity

Q: What does the source list for `CN1CCC(=C2c3ccccc3CCc3sccc32)CC1` [Pizotifen]?
A: EC50 [1, 9]: 541 ± 140 nM; cytotoxicity (in words) [4]: low cytotoxicity

Q: Which tissue distribution ([6]; pig tissues after oral NTZ, n = 2) does the source give for `O=C(Nc1ncc([N+](=O)[O-])s1)c1ccccc1O` [TIZ, Tizoxanide] here?
A: Its tissue distribution is “primarily distributed in small and large intestines, MesLNs, ILNs, but not in high concentrations in lungs”.

Q: And the Tmax ([6]; pig, in vivo, po, 25 mg/kg)?
A: The Tmax was 2.167 h.

Q: And the “affinity compared between proteins” value ([7]; NMRAL1 vs NSP1α and NSP12)?
A: Its value is “higher than that of NSP1α and NSP12”.

Q: What about the Kd ([7]; legend of Fig. 6o, Supplementary Fig. 10a (Affinity fit model)) of the same compound?
A: Its Kd is 4500 nM.

Q: What about the Kd ([7]; value printed in Fig. 6o with ka and kd) of the same compound?
A: The Kd was ~2870 nM and 2870 nM.

Q: What about the kon ([7]; read-out: ka) of the same compound?
A: Its kon is 2380 M⁻¹ s⁻¹.

Q: What about the koff ([7]; read-out: kd) of the same compound?
A: Its koff is 0.00683 s⁻¹.

Q: And the “interaction with NSP12 (SPR)” value [8]?
A: The value was “weak interaction”.

Q: Which results are given for `CN(C)CCCOc1nn(Cc2ccccc2)c2ccccc12` [Benzydamine]?
A: EC50 [1, 9]: 2010 ± 469 nM; cytotoxicity (in words) [4]: low cytotoxicity

Q: For `COc1c(C)c2c(c(O)c1C/C=C(\C)CCC(=O)O)C(=O)OC2` [Mycophenolic acid], which EC50 [1, 9] is on record?
A: Its EC50 is 305 ± 67 nM.

Q: For `CS(=O)(=O)CCNCc1ccc(-c2ccc3ncnc(Nc4ccc(OCc5cccc(F)c5)c(Cl)c4)c3c2)o1` [Lapatinib], which EC50 [1, 9] is on record?
A: The EC50 was 1770 ± 535 nM.

Q: And the CC50 [2]?
A: Its CC50 is 9510 ± 243 nM.

Q: Which results are given for `CN(C/C=C/C#CC(C)(C)C)Cc1cccc2ccccc12` [Terbinafine]?
A: EC50 [1, 9]: 1220 ± 328 nM; cytotoxicity (in words) [4]: low cytotoxicity

Q: Which EC50 [1, 9] does the source give for `Nc1ccn([C@@H]2O[C@H](CO)[C@@H](O)C2(F)F)c(=O)n1` [Gemcitabine] here?
A: The EC50 was 109 ± 29 nM.
